Measured values taken from patent US20250290915A1, “METHOD FOR PREDICTING RESPONSIVENESS TO THERAPY” (CANCERTAIN LIMITED, priority 2022, published 2025).

Legend:
[1] = tested on: cancer cells derived from the tissue sample of a patient with osteosarcoma; assay: Drug response score assay on tissue sample, Example 10; assay type: cell-based, human; design: key to Drug response score, conc. 1 / Drug response score, conc. 2 / Drug response score, conc. 3 / Drug response score, conc. 4: normalized drug response metric per Gupta et al. 2020; details: for effectiveness on the cancer cells derived from the tissue sample under laboratory conditions / Drug sensitivity as calculated by the assay (interpretation of Drug Response Scores): osteosarcoma tissue sample; for Drug sensitivity as calculated by the assay (interpretation of Drug Response Scores): Table 33; for Drug response score, conc. 1 / Drug response score, conc. 2 / Drug response score, conc. 3 / Drug response score, conc. 4: tissue sample; for Drug response score, conc. 1: conc. 1 per Table 31: Etop 1, DTIC 1.5, Ifos 0.125, Doce 0.02, Irinotecan 5 μg/ml; for Drug response score, conc. 2: conc. 2 per Table 31: Etop 4, DTIC 3, Ifos 0.25, Doce 0.2, Irinotecan 10 μg/ml; for Drug response score, conc. 3: conc. 3 per Table 31: Etop 20, DTIC 6, Ifos 5, Doce 2, Irinotecan 25 μg/ml; for Drug response score, conc. 4: conc. 4 per Table 31: Etop 100, DTIC 12, Ifos 10, Doce 10, Irinotecan 50 μg/ml
Protocol: Where a tissue sample was provided by each subject, cancer stem cells (CSCs, CD133^+), were isolated from said sample. Tumour marker cells were further isolated from each tissue sample. The remaining cells were designated tumour marker^+ cells.
First, disaggregation of the tissue samples was carried out. Disaggregation was dependent on the size of the tissue sample and the method of retrieval: • EBUS (Endobronchial Ultrasound Scan and Biopsy)—very small fragments of tissue in solution-spun at 1200 rpm for 5 minutes to collect tissue pellet • Bronchoscopy-larger fragments with larger amount of blood vessels • Broncho-lavage-similar to EBUS, spun at 1200 rpm for 5 minutes to collet tissue pellet
Once a pellet of tissue obtained, DMEM added to the tissue pellet and the material forced through a […] Smart strainer. Once a cell suspension was achieved, this was spun at 1200 rpm for 5 minutes and the supernatant removed. The cells were then resuspended to a volume of 60 μl.
20 μl of FcR block and 20 μl of CD133 microbeads were added to the resuspended cells, followed by incubation for 15 minutes at 4° C. The cells were then processed using an AutoMACS machine. This separates the […] into CD133^+ and CD133^− cells in 2 separate falcons. The falcon tubes are then centrifuged at 1200 rpm for 5 minutes.
The supernatant was removed from the CD133+falcon tube, and the cells resuspended in DMEM with 2 μl Cell Tox, 2 μl MT and 2 μl MT. 20 μl of the resuspended […] was then plated in each well which will contain an immunotherapy treatment.
The supernatant was removed from the CD133^− falcon tube, and the CD133^− cells contacted with 40 μl of a tumour separation microbeads cocktail containing microbeads bound to anti-CD31, anti-CD45, anti-Glycophorin-A (Gly-A) and an anti-fibroblast antibody.
This cocktail is used to separate out tumour marker cells using MACS, by separating out CD31^+, CD45^+ and Gly-A^+ cells. In addition, anti-fibroblast antibody-labelled beads are also used. The cocktail is added to the CD133^− falcon tube, followed by incubation for 15 minutes at 4° C. MACS is carried out using an AutoMACS machine. This cells which are not bound by the CD31, CD45, Gly-A and anti-fibroblast antibody beads are the tumour marker^+ cells.
(§1) The different cell types were each divided equally into populations, depending on the number of drugs/concentrations to be tested and plated on a cell-culture plate pre-coated with a scaffold of polycaprolactone (PCL) electrospun fibres and incubated at 37° C., 5% CO2, for 5 to (typically 10) minutes to facilitate cell attachment. After attachment, an initial imaging step was carried out using the RealTime-Glo™ MT assay from Promega (Catalogue No. G9711)) and the CellTox™ Green Cytotoxicity Assay (Promega, Catalogue No. G8741), carried out according to manufacturer's instructions. Following this initial imagining, the immunotherapeutic and/or chemotherapeutic agents were added to the cell populations as indicated below. After 10 minutes, the imagining step was repeated. The cell populations were then incubated at 37° C., 5% CO2 for 48 hours. The imaging step was then repeated. The cell populations were then re-dosed with the same immunotherapeutic and/or chemotherapeutic agents as indicated below, and incubated at 37° C., 5% CO2 for a further 48 hours. After this second 48 hour incubation, the imagining step was repeated for a final time.
At the end of this culture period, dose response scores were calculated using a normalized drug response metric as described in Gupta et al. (Communications Biology volume 3, Article number: 42 (2020), https://doi.org/10.1038/s42003-020-0765-z). The start readout for a given immunotherapeutic or chemotherapeutic agent at a given concentration was the to readout for said immunotherapeutic or chemotherapeutic agent at a specified concentration. […]

[2] = tested on: Circulating Tumour Cells (CTCs, EpCam+CD45−) from a patient with stage II synovial sarcoma; assay: Drug response score assay (RealTime-Glo MT / CellTox Green, PCL scaffold) on CTCs from blood, Example 1; assay type: cell-based, human; design: key to Drug response score, conc. 1 / Drug response score, conc. 2 / Drug response score, conc. 3 / Drug response score, conc. 4: normalized drug response metric per Gupta et al. 2020; details: for Drug response score, conc. 1: conc. 1: Doxo 10 ng/ml, Ifos 0.125 μg/ml, Gemcit 2 μg/ml, Doce 0.02 μg/ml, Carbo 2 μg/ml, Dacarb 1.5 μg/ml, re-dosed at 48 h; for Drug response score, conc. 1 / Drug response score, conc. 2 / Drug response score, conc. 3 / Drug response score, conc. 4: CTCs, t96h; for Drug response score, conc. 2: conc. 2: Doxo 30 ng/ml, Ifos 0.25 μg/ml, Gemcit 10 μg/ml, Doce 0.2 μg/ml, Carbo 5 μg/ml, Dacarb 3 μg/ml; for Drug response score, conc. 3: conc. 3: Doxo 90 ng/ml, Ifos 5 μg/ml, Gemcit 20 μg/ml, Doce 2 μg/ml, Carbo 10 μg/ml, Dacarb 6 μg/ml; for Drug response score, conc. 4: conc. 4: Doxo 270 ng/ml, Ifos 10 μg/ml, Gemcit 40 μg/ml, Doce 10 μg/ml, Carbo 20 μg/ml, Dacarb 12 μg/ml; for Drug sensitivity as calculated by the assay (interpretation of Drug Response Scores): Table 5
Protocol: CD45^+ cells and circulating tumour cells (CTCs) were isolated from a blood sample provided by each subject.
CD45 separation was performed by adding human CD45 microbeads (50 μl/ml blood), incubating for 15 minutes at 4° C. and then processing using an AutoMACS machine. This separates the blood sample into CD45^+ and CD45^−cells in 2 separate falcons. The falcon tubes are then centrifuged at 1200 rpm for 5 minutes.
The supernatant was removed from the CD45^−falcon tube, and the CD45^−cells contacted with 100 μl of FcR block and 100 μl of CD326 (EpCAM) MicroBeads, followed by incubation at […] 4° C. for 30 minutes. The CD45^−cells were then processed using an AutoMACS machine to separate the EpCAM positive and negative cells into 2 separate falcon tubes. The EpCAM-cells were discarded. The supernatant was removed from the EpCAM^+ cells, and the cells resuspended in DMEM with 2 μl Cell Tox, 2 μl MT and 2 μl MT. 20 μl of the resuspended pellet was then added to all sample wells excluding a blank. After all wells are added to, a cell count was conducted on the […] to determine the number of circulating tumour cells (CTCs).
as §1
At the end of this culture period, dose response scores were calculated using a normalized drug response metric as described in Gupta et al. (Communications Biology volume 3, Article number: 42 (2020), https://doi.org/10.1038/s42003-020-0765-z). The start readout for a given immunotherapeutic or chemotherapeutic agent at a given concentration was the to readout for said immunotherapeutic or chemotherapeutic agent at a specified concentration. The end readout for a given immunotherapeutic or chemotherapeutic agent at a given concentration was the final timepoint reading (t96h) for said immunotherapeutic or chemotherapeutic agent at a specified concentration.
The positive control start readout for a given drug/concentration was the to readout for the corresponding drug at a specified concentration. The positive control end readout for the corresponding drug at a specified concentration was the final timepoint reading (t96h) for the corresponding blank well.
The negative control start and end readouts for a given immunotherapeutic or chemotherapeutic agent at a given concentration were the to and final timepoint reading (t96h) respectively for blank cell or blank immuno cell well respectively.
The sensitivity or resistance of a subject's cancer to a given immunotherapeutic or chemotherapeutic agent was determined based on the calculated drug response score as shown in Table 2.
Blood samples from a patient with stage II synovial sarcoma (suspected spindle cell tumour) were received and tested using a 6 drug panel.
Chemotherapeutic agents were tested as in Table 3.

In the case of `COc1cc([C@@H]2c3cc4c(cc3[C@@H](O[C@@H]3O[C@@H]5CO[C@@H](C)O[C@H]5[C@H](O)[C@H]3O)[C@H]3COC(=O)[C@H]23)OCO4)cc(OC)c1O` [Etoposide], the “effectiveness on the cancer cells derived from the tissue sample under laboratory conditions” value [1] was “show effectiveness”, the “Drug sensitivity as calculated by the assay (interpretation of Drug Response Scores)” value (“Drug sensitivity as calculated” below) [1] was “Sensitive (S+)” and the “Drug response score, conc. 1” value [1] was 0.4829. The “Drug response score, conc. 2” value [1] was 0.0653, the “Drug response score, conc. 3” value [1] was −0.4472 and the “Drug response score, conc. 4” value [1] was 0.0955.

With `O=P1(NCCCl)OCCCN1CCCl` (stereo not shown) [Ifosfamide] the “Drug response score, conc. 1” value [2] was 0.7534, the “Drug response score, conc. 2” value [2] was 0.6369 and the “Drug response score, conc. 3” value [2] was 0.7555. The “Drug response score, conc. 4” value [2] was 0.5976, the “Drug sensitivity as calculated” value ([2]; synovial sarcoma CTCs) was “Sensitive (S+)” and the “effectiveness on the cancer cells derived from the tissue sample under laboratory conditions” value [1] was “show effectiveness”. For the same compound, the “Drug sensitivity as calculated” value [1] was “Sensitive (S+)”, the “Drug response score, conc. 1” value [1] was 0.3183 and the “Drug response score, conc. 2” value [1] was 0.8776. For the same compound, the “Drug response score, conc. 3” value [1] was 0.1237 and the “Drug response score, conc. 4” value [1] was −0.8671.

In the case of `COc1cccc2c1C(=O)c1c(O)c3c(c(O)c1C2=O)C[C@@](O)(C(=O)CO)C[C@@H]3O[C@H]1C[C@H](N)[C@H](O)[C@H](C)O1` [Doxorubicin], the “Drug response score, conc. 1” value [2] was 0.9432, the “Drug response score, conc. 2” value [2] was 0.7234 and the “Drug response score, conc. 3” value [2] was 0.8842. The “Drug response score, conc. 4” value [2] was 0.8405, the “effectiveness on Circulating Tumour Cells under laboratory conditions” value ([2]; synovial sarcoma CTCs) was “marginally less effective compared to other drugs” and the “Drug sensitivity as calculated” value ([2]; synovial sarcoma CTCs) was “Sensitive (S+)”.

For `CC(=O)O[C@@]12CO[C@@H]1C[C@H](O)[C@@]1(C)C(=O)[C@H](O)C3=C(C)[C@@H](OC(=O)[C@H](O)[C@@H](NC(=O)OC(C)(C)C)c4ccccc4)C[C@@](O)([C@@H](OC(=O)c4ccccc4)[C@H]21)C3(C)C` [Docetaxel], the “Drug response score, conc. 1” value [2] was 0.8633, the “Drug response score, conc. 2” value [2] was 0.7451 and the “Drug response score, conc. 3” value [2] was 0.6992. The “Drug response score, conc. 4” value [2] was 0.4852, the “Drug sensitivity as calculated” value ([2]; synovial sarcoma CTCs) was “Sensitive (S+)” and the “effectiveness on the cancer cells derived from the tissue sample under laboratory conditions” value [1] was “resistant”. For the same compound, the “Drug sensitivity as calculated” value [1] was “Resistant”, the “Drug response score, conc. 1” value [1] was −0.5113 and the “Drug response score, conc. 2” value [1] was 1.0268. The “Drug response score, conc. 3” value [1] was 0.6693 and the “Drug response score, conc. 4” value [1] was −0.6056.
